Source: patent US9139574B2, “Tumor targeted drug combretastatin A4 derivative” (Nanjing Sanhome Pharmaceutical Co., Ltd., priority 2011, dated 2015)

Key:
K562 = assay: MTT assay of anti-tumor activity, K562; type: cell-based; conditions: K562 cells
Procedure: (§1) The cells were digested and counted. The cell suspension was prepared in a concentration of 5×10^4 cells/ml. 100 μL of the cell suspension per well was added into 96-well plates (5×10^3 cells per well). The 96-well plates were placed in a 5% CO2 incubator at 37° C. for 24 hours. The drugs were diluted with the complete medium to the desired concentrations. 100 μL of the corresponding drug-containing medium was added into each well. Negative control group, vehicle control group and positive control group were set. The 96-well plates were placed in 5% CO2 incubator at 37° C. for 72 hours. The 96-well plates were subjected to a MTT assay, and measured OD value at λ=490 nm. The measurement procedure comprises adding 20 μL MTT (5 mg/ml) for each well, incubating for 4 hours in an incubator, discarding the medium, dissolving by adding 150 μL DMSO into each well, mixing uniformly by rocking gently for 10 minutes on a shaker, reading OD value of each well in a microplate reader at λ=490 nm. The inhibition rate was calculated, the results were recorded, and the anti-tumor activity was assessed.

MCF-7 = assay: MTT assay of anti-tumor activity, MCF-7; type: cell-based; conditions: MCF-7 cells
Procedure: as §1

HCT-116 = assay: MTT assay of anti-tumor activity, HCT-116; type: cell-based; conditions: HCT-116 cells
Procedure: as §1

NCI-H460 = assay: MTT assay of anti-tumor activity, NCI-H460; type: cell-based; conditions: NCI-H460 cells
Procedure: as §1

DU-145 = assay: MTT assay of anti-tumor activity, DU-145; type: cell-based; conditions: DU-145 cells
Procedure: as §1

SMILES | melting point | also measured
COc1ccc(-c2ncn(-c3cc(OC)c(OC)c(OC)c3)c2-c2cc(OC)c(OC)c(OC)c2)cc1OC [Compound C104, 5-(3,4,5-trimethoxyphenyl)-4-(3,4-dimethoxyphenyl)-1-(3,4,5-trimethoxyphenyl)imidazole] | 159.5 to 161 °C | 
COc1cc(OC)cc(-c2ncn(C)c2-c2scc3c2OCCO3)c1 [Compound C238, N-methyl-4-(3,5-dimethoxyphenyl)-5-[(3,4-ethylenedioxyl)thienyl]imidazole] |  | IC50 (K562; 72 hours): 11.2 nM; IC50 (MCF-7; 72 hours): 6.1 nM; IC50 (HCT-116; 72 hours): 230 nM; IC50 (NCI-H460; 72 hours): > 300 nM; IC50 (DU-145; 72 hours): 150 nM
COc1cc(OC)cc(-c2ncoc2-c2ccc3c(c2)NC(=O)CO3)c1 [Compound C253, 4-(3,5-dimethoxyphenyl)-5-[6-(3-oxobenzomorpholiny)]oxazole] |  | IC50 (K562; 72 hours): 310 nM; IC50 (MCF-7; 72 hours): 6.4 nM; IC50 (HCT-116; 72 hours): 121 nM; IC50 (NCI-H460; 72 hours): 26.4 nM; IC50 (DU-145; 72 hours): 76.2 nM
COc1cc(OC)cc(-c2ncoc2-c2ccc(NC(C)=O)cc2)c1 [Compound C109, 5-(4-acetamidophenyl)-4-(3,5-dimethoxyphenyl)oxazole] | 140.1 to 143.2 °C | 
COc1cc(OC)cc(-c2ncoc2-c2ccc3c(c2)NCCO3)c1 [Compound C255, 4-(3,5-dimethoxyphenyl)-5-(6-benzomorpholinyl)oxazole] | 175 to 178 °C | 
COc1cc(OC)cc(-c2ncoc2-c2ccc(N)cc2)c1 [Compound C112, 4-(3,5-dimethoxyphenyl)-5-(4-aminophenyl)oxazole] | 142 to 146 °C | 
COc1cc(OC)cc(-c2nc[nH]c2-c2ccc(OC(F)(F)F)c(N)c2)c1 [Compound C152, 4-(3,5-dimethoxyphenyl)-5-(3-amino-4-trifluoromethoxyphenyl)imidazole] |  | IC50 (K562; Homo sapiens, K562, 72 h): 6.8 nM; IC50 (MCF-7; Homo sapiens, MCF7, 72 h): 10.2 nM; IC50 (HCT-116; Homo sapiens, HCT-116, 72 h): 34 nM; IC50 (NCI-H460; Homo sapiens, NCI-H460, 72 h): > 300 nM
COc1cc(OC)cc(-c2ncoc2-c2cc(N)c(OC)cc2N)c1 [Compound C119, 4-(3,5-dimethoxyphenyl)-5-(2,5-diamino-4-methoxyphenyl)oxazole] | 149.9 to 151.6 °C | 
COc1cc(OC)cc(-c2ncoc2-c2ccc(N(C)C)c(N)c2)c1 [Compound C113, 4-(3,5-dimethoxyphenyl)-5-(3-amino-4-dimethylaminophenyl)oxazole] | 111.7 to 113.5 °C | 
COc1cc(OC)cc(-c2nc[nH]c2-c2ccc(OC)c(N)c2O)c1 [Compound C146, 4-(3,5-dimethoxyphenyl)-5-(2-hydroxy-3-amino-4-methoxyphenyl)imidazole] |  | IC50 (K562; Homo sapiens, K562, 72 h): 6.1 nM; IC50 (MCF-7; Homo sapiens, MCF7, 72 h): 9.3 nM; IC50 (HCT-116; Homo sapiens, HCT-116, 72 h): 289 nM; IC50 (DU-145; Homo sapiens, DU-145, 72 h): > 300 nM
COc1ccc(-c2c(-c3cc(OC)c(OC)c(OC)c3)ncn2-c2cc(OC)c(OC)c(OC)c2)cc1O [Compound C105, 5-(3-hydroxy-4-methoxyphenyl)-4-(3,4,5-trimethoxyphenyl)-1-(3,4,5-trimethoxyphenyl)imidazole] |  | IC50 (K562; Homo sapiens, K562, 72 h): 8.9 nM; IC50 (MCF-7; Homo sapiens, MCF7, 72 h): 21 nM; IC50 (HCT-116; Homo sapiens, HCT-116, 72 h): 151 nM; IC50 (NCI-H460; Homo sapiens, NCI-H460, 72 h): 21 nM
COc1cc(OC)cc(-c2ncn(-c3cc(OC)c(OC)c(OC)c3)c2-c2ccc(OC)c(F)c2)c1 [Compound C091, 5-(3-fluoro-4-methoxyphenyl)-4-(3,5-dimethoxyphenyl)-1-(3,4,5-trimethoxyphenyl)imidazole] | 157 to 158.4 °C | 
COc1cc(OC)cc(-c2nc[nH]c2-c2ccc(N(C)C)cc2)c1 [Compound C130, 4-(3,5-dimethoxyphenyl)-5-(4-dimethylaminophenyl)imidazole] |  | IC50 (K562; Homo sapiens, K562, 72 h): 23 nM; IC50 (K562; 72 hours): 21.3 nM; IC50 (HCT-116; Homo sapiens, HCT-116, 72 h): 25 nM; IC50 (NCI-H460; Homo sapiens, NCI-H460, 72 h): 350 nM; IC50 (NCI-H460; 72 hours): > 300 nM
COc1cc(-c2ncn(-c3cc(OC)c(OC)c(OC)c3)c2-c2cc(OC)c(OC)c(OC)c2)cc(OC)c1OC [Compound C107, 5-(3,4,5-trimethoxyphenyl)-4-(3,4,5-trimethoxyphenyl)-1-(3,4,5-trimethoxyphenyl)imidazole] | 168.8 to 170.9 °C | 
COc1cc(OC)cc(-c2nc[nH]c2-c2ccc(OC)c(O)c2)c1.O=P([O-])([O-])O.[Na+].[Na+] | 169.7 to 172.1 °C | 
COc1cc(-c2ncn(-c3ccc(C(F)(F)F)cc3)c2-c2ccc(N(C)C)cc2)cc(OC)c1OC [Compound C092, 5-(4-dimethylaminophenyl)-4-(3,4,5-trimethoxyphenyl)-1-(4-trifluoromethylphenyl)imidazole] | 215 to 217 °C | 

More lines, main results first:

melting point | SMILES | also measured
148.5 to 149.9 °C | COc1ccc(-c2[nH]cnc2-c2cc(OC)c(O)c(OC)c2)cc1N [CN14, 4-(3,5-dimethoxy-4-hydroxyphenyl)-5-(3-amino-4-methoxyphenyl)imidazole] | 
124.7 to 127 °C | COc1ccc(-c2[nH]cnc2-c2cc(OC)c(O)c(OC)c2)cc1F [CN12, 4-(3,5-dimethoxy-4-hydroxyphenyl)-5-(3-fluoro-4-methoxyphenyl) imidazole] | 
146.2 to 148.1 °C | COc1ccc(-c2ocnc2-c2cc(OC)c(Cl)c(OC)c2)cc1N [CN21, 4-(3,5-dimethoxy-4-chlorophenyl)-5-(3-amino-4-methoxyphenyl)oxazole] | 
147.7 to 149 °C | COc1ccc(-c2[nH]cnc2-c2cc(OC)c([N+](=O)[O-])c(OC)c2)cc1O [CN16, 4-(3,5-dimethoxy-4-nitrophenyl)-5-(3-hydroxy-4-methoxyphenyl)imidazole] | 
101.2 to 102 °C | COc1ccc(-c2ocnc2-c2cc(OC)c(O)c(OC)c2)cc1N [CN05, 4-(3,5-dimethoxy-4-hydroxyphenyl)-5-(3-amino-4-methoxyphenyl)oxazole] | 
184.7 to 187 °C | COc1ccc(-c2[nH]cnc2-c2cc(OC)c(Br)c(OC)c2)cc1O [CN11, 4-(3,5-dimethoxy-4-bromophenyl)-5-(3-hydroxy-4-methoxyphenyl) imidazole] | 
141.8 to 143.7 °C | COc1ccc(-c2[nH]cnc2-c2cc(OC)c(N)c(OC)c2)cc1O [CN17, 4-(3,5-dimethoxy-4-aminophenyl)-5-(3-hydroxy-4-methoxyphenyl) imidazole] | 
161.3 to 162.8 °C | COc1ccc(-c2ocnc2-c2cc(OC)c(O)c(OC)c2)cc1F [CN03, 4-(3,5-dimethoxy-4-hydroxyphenyl)-5-(3-fluoro-4-methoxyphenyl)oxazole] | 
171.5 to 173 °C | COc1ccc(-c2[nH]cnc2-c2cc(OC)c(O)c(OC)c2)cc1O [CN15, 4-(3,5-dimethoxy-4-hydroxyphenyl)-5-(3-hydroxy-4-methoxyphenyl)imidazole] | 
186.2 to 188.4 °C | COc1ccc(-c2ocnc2-c2cc(OC)c([N+](=O)[O-])c(OC)c2)cc1O [CN07, 4-(3,5-dimethoxy-4-nitrophenyl)-5-(3-hydroxy-4-methoxyphenyl)oxazole] | 
179.8 to 183.9 °C | COc1ccc(-c2ocnc2-c2cc(OC)c(Br)c(OC)c2)cc1N [CN04, 4-(3,5-dimethoxy-4-bromophenyl)-5-(3-amino-4-methoxyphenyl)oxazole] | 
139.7 to 142.1 °C | COc1ccc(-c2ocnc2-c2cc(OC)c(F)c(OC)c2)cc1N [CN20, 4-(3,5-dimethoxy-4-fluorophenyl)-5-(3-amino-4-methoxyphenyl)oxazole] | 
126 to 129.6 °C | COc1ccc(-c2ocnc2-c2cc(OC)c(N)c(OC)c2)cc1O [CN08, 4-(3,5-dimethoxy-4-aminophenyl)-5-(3-hydroxy-4-methoxyphenyl)oxazole] | 
139.7 to 142.1 °C | COc1ccc(-c2[nH]cnc2-c2cc(OC)c(N)c(OC)c2)cc1N [CN19, 4-(3,5-dimethoxy-4-aminophenyl)-5-(3-amino-4-methoxyphenyl) imidazole] | 
144.3 to 145.5 °C | COc1ccc(-c2ocnc2-c2cc(OC)c(O)c(OC)c2)cc1O [CN06, 4-(3,5-dimethoxy-4-hydroxyphenyl)-5-(3-hydroxy-4-methoxyphenyl)oxazole] | 
184.7 to 187 °C | COc1ccc(-c2ocnc2-c2cc(OC)c(Br)c(OC)c2)cc1O [CN02, 4-(3,5-dimethoxy-4-bromophenyl)-5-(3-hydroxy-4-methoxyphenyl)oxazole] | 
100.8 to 102.6 °C | COc1ccc(-c2ocnc2-c2cc(OC)c(N)c(OC)c2)cc1F [CN01, 4-(3,5-dimethoxy-4-aminophenyl)-5-(3-fluoro-4-methoxyphenyl)oxazole] | 
100.8 to 102.6 °C | COc1ccc(-c2[nH]cnc2-c2cc(OC)c(N)c(OC)c2)cc1F [CN10, 4-(3,5-dimethoxy-4-aminophenyl)-5-(3-fluoro-4-methoxyphenyl) imidazole] | 
159.7 to 162 °C | COc1ccc(-c2[nH]cnc2-c2cc(OC)c(Br)c(OC)c2)cc1N [CN13, 4-(3,5-dimethoxy-4-bromophenyl)-5-(3-amino-4-methoxyphenyl)imidazole] | 
167.9 to 170.2 °C | COc1ccc(-c2ocnc2-c2cc(OC)c(OC(F)(F)F)c(OC)c2)cc1N [CN23, 4-(3,5-dimethoxy-4-trifluoromethoxyphenyl)-5-(3-amino-4-methoxyphenyl)oxazole] | 
